Consider three molecules from publication PMC8672713 (Chemical Science, 2021).

pIC50: −log10 of the molar value.

This assay has as its target SARS-CoV-2 Mpro (Severe acute respiratory syndrome coronavirus 2, UniProt P0DTD1). Format: biochemical.
With `Cc1cncc(C(=O)NC[C@H]2c3ccccc3CCN2C(=O)c2cccn3nnnc23)c1` [Z4921675438], the pIC50 is 4.96.
As for `O=C(NC[C@H](NC(=O)c1cncc2sccc12)c1ccc2ccccc2c1)c1cocn1` [Z4921678803], the figure is 4.92; as for `O=C(NC[C@@H]1CC2(CCC2)CN1C(=O)c1ccc(F)c(O)c1)c1cncc2ccccc12` [Z4927220858], 4.95.

In general, pIC50 refers to the negative decadic logarithm of the IC50, by convention in mol/L.
